Experimental data from ChEMBL document CHEMBL1149212, “Synthesis and biological evaluation of imidazole-based small molecule antagonists of the melanocortin 4 receptor (MC4-R)” (Bioorg Med Chem Lett, 2004).

What was measured:
[1] = system: HEK293; test: Ability to decrease the intracellular cAMP levels induced by 1 nM NDP-MSH in HEK293/ hMC4 cells.; type: functional, cell-based; conditions: Homo sapiens
[2] = molecular target: Melanocortin receptor 4 (Homo sapiens, UniProt P32245); test: In vitro binding affinity towards melanocortin 4 receptor.
Melanocortin receptor 4, sequence (P32245 whole entry): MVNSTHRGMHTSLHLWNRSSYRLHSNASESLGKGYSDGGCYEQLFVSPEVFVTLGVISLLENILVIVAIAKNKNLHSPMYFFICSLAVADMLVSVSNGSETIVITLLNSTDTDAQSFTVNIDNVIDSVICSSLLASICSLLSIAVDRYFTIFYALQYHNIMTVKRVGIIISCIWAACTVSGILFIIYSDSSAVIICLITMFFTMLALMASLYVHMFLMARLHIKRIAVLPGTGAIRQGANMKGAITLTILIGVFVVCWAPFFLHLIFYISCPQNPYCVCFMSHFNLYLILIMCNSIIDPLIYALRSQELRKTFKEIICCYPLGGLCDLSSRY

[3] = Plasma clearance in rat p.o.; type: ADME, organism-based; conditions: po
[4] = Cmax in rat; type: ADME, organism-based; conditions: in vivo
[5] = AUC in rat p.o.; type: ADME, organism-based; conditions: plasma, po
[6] = Cmax in rat at the dose of 1 mg/kg i.v.; type: ADME, organism-based; design: dose 1 mg/kg, route intravenous; conditions: in vivo, iv
[7] = AUC was determined; type: ADME; conditions: plasma
[8] = Plasma clearance was determined; type: ADME, organism-based; conditions: rat

Row | Structure (SMILES) | IC50 [1] [nM] | Ki [2] [nM] | further results
1 | COc1ccc(Br)cc1CCc1ccccc1-c1nc(C)cn1C | 240 | 270 | 
2 | COc1ccc(Br)cc1CCc1c(Cl)cccc1-c1nccn1C(C)C | 1400 | 670 | 
3 | CCC(C)n1ccnc1-c1cccc(Cl)c1CCc1cc(Br)ccc1OC (configuration not stated) | 2100 | 2500 | 
4 | COc1ccc(Br)cc1CCc1ccccc1-c1ncc(C)n1C | 51 | 180 | 
5 | CCCn1ccnc1-c1cccc(Cl)c1CCc1cc(Br)ccc1OC | 1900 | 1300 | 
6 | CCc1cn(C)c(-c2ccccc2CCc2cc(Br)ccc2OC)n1 | 820 | 690 | 
7 | COc1ccc(Br)cc1CCc1c(F)cccc1-c1ncc2n1CCC2 | 390 | 320 | 
8 | COc1ccc(Br)cc1CCc1c(Cl)cccc1-c1nccn1C | 1100 | 300 | 
9 | COc1ccc(Br)cc1CCc1c(Cl)cccc1-c1ncc2n1CCC2 | 710 | 180 | 
10 | Cn1ccnc1-c1cccc(Cl)c1CCc1cc(Br)ccc1O | 10200 | 9300 | 
11 | COc1ccc(Br)cc1CCc1ccccc1-c1nc(C)c(C)n1C | 200 | 140 | 
12 | COc1ccc(Br)cc1CCc1ccccc1-c1nc(C(C)C)cn1C | 1200 | 1600 | 
13 | CCc1cnc(-c2ccccc2CCc2cc(Br)ccc2OC)n1C | 170 | 320 | 
14 | COc1ccc(Br)cc1CCc1c(F)cccc1-c1ncc2n1CCCC2 | 480 | 620 | 
15 | COc1ccc(Br)cc1CCc1c(Cl)cccc1-c1ncc2n1CCCC2 | 590 | 340 | CL/F [3]: 18.3 mL/min/kg; Cmax [4]: 6.45 µM; AUC [5]: 2 µM·h
16 | COc1ccc(Br)cc1CCc1c(Cl)cccc1-c1nccn1CC1CC1 | 1700 | 2000 | 
17 | COc1ccc(Br)cc1CCc1c(F)cccc1C1=NCCN1 |  |  | Cmax [6]: 0.031 µM; AUC [7]: 0.204 µM·h; clearance [8]: 222 mL/min/kg
18 | COc1ccc(Br)cc1CCc1c(Cl)cccc1-c1ncc[nH]1 | 580 | 1500 | 
19 | CCn1ccnc1-c1cccc(Cl)c1CCc1cc(Br)ccc1OC | 1800 | 310 | 
